Reference: US20140249143A1, “Compounds And Methods For Enhancing Innate Immune Responses” (GlaxoSmithKline LLC, priority 2011, published 2014)

Columns and labels:
Assay type in all cases: cell-based
[1] = test system: HCV genotype 1a subgenomic replicon; assay: Anti-Hepatitis C replicon assay, genotype 1a (luciferase); conditions: Hepatitis C virus; luciferase activity measured 48 hours later; read-out: HCV Genotype 1A Replicon pEC50 (converted)
In short: (§1)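 The 1b line is ET cells carrying the I389luc-ubi-neo/NS3-3′/ET replicon with adaptive mutations E1202G, T1280I and K1846T; the 1a line is an Apath replicon line modified with firefly luciferase. Cells were exposed 48 h to compound (final 0.03 pM–50 μM, 0.5-1% DMSO), read by Steady-Glo luciferase, and IC50 came from 10-point four-parameter logistic fits; cytotoxicity was read by CellTiter-Glo.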

[2] = test system: HCV genotype 1b subgenomic replicon; assay: Anti-Hepatitis C replicon assay, genotype 1b (luciferase); conditions: Hepatitis C virus; luciferase activity measured 48 hours later; read-out: HCV Genotype 1B Replicon pEC50 (converted)
In short: as §1

[3] = test system: IFN mediated JAK/STAT pathway (ISG54 promoter); assay: Activation of the JAK/STAT pathway in HEKBlue IFN-α/β cells (SEAP); conditions: HEK-Blue; 24 h, QUANTI-Blue, OD 650 nm; read-out: EC50 of activation of the JAK/STAT pathway (secreted alkaline phosphatase)
Method: The cells were incubated for 24 h in the presence of several treatments (Example 1, IFNα, and IFNλ3) and the supernatants were measured for the amount of the secreted alkaline phosphatase using QUANTI-Blue™ (InvivoGen) at the optical density of 650 nm. […] The activation of the pathway by IFNα (PBL) and IFNλ3 (R&D Systems Inc.) are shown as positive controls.

## FC(F)(F)c1cc(C(F)(F)F)c2ccc3nc(-c4nnco4)cn3c2n1 [Compound 1, 2-[2,4-bis(trifluoromethyl)imidazo[1,2-a]1,8-naphthyridin-8-yl]-1,3,4-oxadiazole]
[1]
  EC50: 50.1 nM
[2]
  EC50: 200 nM
[3]
  EC50: ~1000 nM
